Experiments:
Format in all cases: cell membranes
[1] = target: T1, D(2) dopamine receptor (Rattus norvegicus, UniProt P61169); test: Binding affinity against dopamine D2 receptor in rat brain synaptic membrane using [3H]-spiperone as radioligand
[2] = target: T2, Serotonin 3 (5-HT3) receptor (Rattus norvegicus, UniProt P35563+Q9JJ16); test: Binding affinity against 5-hydroxytryptamine 3 receptor in rat cortical membrane using [3H]GR-65630 as radioligand
T2 sequence (P35563 whole entry): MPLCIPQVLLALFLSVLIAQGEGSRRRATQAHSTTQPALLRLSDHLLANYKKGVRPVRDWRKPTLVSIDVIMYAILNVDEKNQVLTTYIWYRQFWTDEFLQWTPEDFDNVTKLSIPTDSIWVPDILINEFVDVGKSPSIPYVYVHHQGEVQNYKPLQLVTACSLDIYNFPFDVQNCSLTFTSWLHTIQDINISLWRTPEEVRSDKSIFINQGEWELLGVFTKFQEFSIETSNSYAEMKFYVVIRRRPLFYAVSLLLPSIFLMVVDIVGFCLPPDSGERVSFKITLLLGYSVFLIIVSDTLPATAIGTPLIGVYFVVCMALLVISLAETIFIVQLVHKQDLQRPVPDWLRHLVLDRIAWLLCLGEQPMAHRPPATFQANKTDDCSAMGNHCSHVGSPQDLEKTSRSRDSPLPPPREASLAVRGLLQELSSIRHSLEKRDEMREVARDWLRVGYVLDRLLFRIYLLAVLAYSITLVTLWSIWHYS
T2 sequence (Q9JJ16 whole entry): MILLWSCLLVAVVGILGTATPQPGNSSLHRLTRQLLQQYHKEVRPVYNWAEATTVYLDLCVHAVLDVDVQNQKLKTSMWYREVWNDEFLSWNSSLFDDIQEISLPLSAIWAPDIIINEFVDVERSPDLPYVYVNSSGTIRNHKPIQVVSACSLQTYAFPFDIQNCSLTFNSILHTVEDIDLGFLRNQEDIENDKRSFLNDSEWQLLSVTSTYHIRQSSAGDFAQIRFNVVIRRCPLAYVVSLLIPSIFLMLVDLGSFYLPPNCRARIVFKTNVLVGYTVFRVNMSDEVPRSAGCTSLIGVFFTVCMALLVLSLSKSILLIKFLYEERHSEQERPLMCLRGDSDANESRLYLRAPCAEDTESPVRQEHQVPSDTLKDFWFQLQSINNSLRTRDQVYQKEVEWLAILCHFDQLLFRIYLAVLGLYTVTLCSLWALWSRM

[3] = target: T1, D(2) dopamine receptor; test: Compound was tested for binding affinity against Dopamine receptor D2 in rat brain synaptic membrane using [3H]-spiperone as radioligand

T1 sequence (P61169 whole entry): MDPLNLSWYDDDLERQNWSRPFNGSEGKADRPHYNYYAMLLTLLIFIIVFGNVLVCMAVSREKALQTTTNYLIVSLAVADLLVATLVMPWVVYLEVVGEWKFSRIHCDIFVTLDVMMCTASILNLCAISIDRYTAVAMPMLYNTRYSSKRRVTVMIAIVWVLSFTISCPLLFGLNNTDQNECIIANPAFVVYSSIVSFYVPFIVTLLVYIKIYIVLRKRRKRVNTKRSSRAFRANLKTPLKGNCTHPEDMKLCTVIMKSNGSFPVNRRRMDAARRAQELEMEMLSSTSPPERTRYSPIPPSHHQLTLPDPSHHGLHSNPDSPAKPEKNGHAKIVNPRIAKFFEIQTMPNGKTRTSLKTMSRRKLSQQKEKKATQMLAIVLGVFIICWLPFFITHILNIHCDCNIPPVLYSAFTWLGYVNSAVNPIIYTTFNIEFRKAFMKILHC

Row | IC50 [1] [nM] | IC50 [2] [nM] | IC50 [3] [nM] | Structure (SMILES)
1 | 61 | 4.8 |  | CCN1CCN(C)CC(NC(=O)c2cc(Cl)c(NC)cc2OC)C1 (stereo unspecified)
2 |  | 9.6 | > 1000 | COc1cc(N)c(Cl)cc1C(=O)NC1CN(C)CCN(C)C1
3 | 181 | 1.9 |  | CCNc1cc(OC)c(C(=O)NC2CN(C)CCN(CC)C2)cc1Cl (stereo unspecified)
4 | 87 | 12 |  | CCN1CCN(C)C[C@@H](NC(=O)c2cc(Cl)c(N)cc2OC)C1
5 | 320 | 1.5 |  | CCN1CCN(C)C[C@H](NC(=O)c2cc(Cl)c(NC)cc2OC)C1
6 | 4.5 | 97 |  | CCN1CCCC[C@@H](NC(=O)c2cc(Cl)c(NC)cc2OC)C1
7 | 19 | 134 |  | CCN1CCCC[C@@H](NC(=O)c2cc(Cl)c(N)cc2OC)C1
8 | 517 | 7 |  | CCN1CCN(C)C[C@H](NC(=O)c2cc(Cl)c(N)cc2OC)C1
9 | 367 | 4.5 |  | CCN1CCCC[C@H](NC(=O)c2cc(Cl)c(NC)cc2OC)C1
10 | > 1000 | 10 |  | CCN1CCCC[C@H](NC(=O)c2cc(Cl)c(N)cc2OC)C1
11 | 25 | 50 |  | CCNc1cc(OC)c(C(=O)NC2CCCCN(CC)C2)cc1Cl (stereo unspecified)
12 | 218 | 24 |  | CCCN1CCN(C)CC(NC(=O)c2cc(Cl)c(N)cc2OC)C1 (stereo unspecified)
13 | 127 | 8.5 |  | CCN1CCN(C)CC(NC(=O)c2cc(Cl)c(N)cc2OC)C1 (stereo unspecified)
14 | 39 | 33 |  | CCN1CCCCC(NC(=O)c2cc(Cl)c(N)cc2OC)C1 (stereo unspecified)
15 |  | 36 |  | COc1cc(N)c(Cl)cc1C(=O)NC1CCCCN(C)C1 (stereo unspecified)
16 | 11 | 6.6 |  | CCN1CCCCC(NC(=O)c2cc(Cl)c(NC)cc2OC)C1 (stereo unspecified)
17 | 87 | 640 |  | COc1cc(N)c(Cl)cc1C(=O)NC1CCCCN(C(C)C)C1 (stereo unspecified)
18 | 57 | 37 |  | CCCN1CCCCC(NC(=O)c2cc(Cl)c(N)cc2OC)C1 (stereo unspecified)
19 | > 1000 |  |  | Cc1nccn1CC1CCc2c(c3ccccc3n2C)C1=O (stereo unspecified) [ONDANSETRON]
